Molecules are shown by their SMILES.

A short description of the data set: method code SF, from DOI: 10.1007/bf00302523.
`COP(=S)(OC)Oc1ccc([N+](=O)[O-])c(Cl)c1` showed a logP of 3.45.
As for `COP(=O)(OC)Oc1ccc([N+](=O)[O-])c(C)c1`, the logP was found to be 1.69.
In the case of `COP(=O)(OC)Oc1ccc([N+](=O)[O-])c(C(C)C)c1` it was 2.57.
In the case of `COP(=O)(OC)Oc1cc(C)c([N+](=O)[O-])c(C)c1` it was 2.26; in that of `COP(=S)(OC)Oc1ccc([N+](=O)[O-])cc1Cl`, 3.44; in that of `CCc1cc(OP(=O)(OC)OC)ccc1[N+](=O)[O-]`, 2.19.
In the case of `CCc1cc(OP(=S)(OC)OC)ccc1[N+](=O)[O-]` it was 3.74; in that of `COP(=S)(OC)Oc1ccc([N+](=O)[O-])c(C)c1`, 3.3; in that of `COP(=S)(OC)Oc1ccc([N+](=O)[O-])c(C(C)C)c1`, 4.05.
`COP(=S)(OC)Oc1cc(C)c([N+](=O)[O-])c(C)c1`: the logP was determined as 3.89.
In the case of `COP(=O)(OC)Oc1ccc([N+](=O)[O-])cc1Cl` it was 1.84; in that of `COP(=O)(OC)Oc1ccc([N+](=O)[O-])c(Cl)c1`, 1.83.

What is called logP is a log measure of how a compound divides between an organic and an aqueous phase.

Values taken from the SangsterLogP compilation.
